Experiments:
[1] = tested on: C57BL6 mice fed High Fat Diet; assay: Oxygen consumption (Oxymax indirect calorimeter) in High Fat Diet fed mice; format: in vivo; details: Dose 11 μM/kg intraperitoneally, day 8, % change vs vehicle; for change in vivo at 11 µM, 11 µmol/kg: Mus musculus, ip, 192 h, read-out: increase in O2 cons
Experimental: (§1) C57BL6 mice (14-18 weeks age), fed for 8-12 weeks with High Fat Diet (45% kcal fat) were used for the study. The mice were placed in individual housing for one week. The mice were then kept in oxymax cages for 48 h for acclimatization. Basal recordings of oxygen consumption and carbon dioxide production for each mouse were recorded with indirect open circuit calorimeter (Oxymax, Columbus Instruments, USA (Ling fu et al., Endocrinology (2004); 145 (6); 2591-3). On the basis of body weight and basal oxygen consumption, mice were randomized and divided into two groups. • I) Vehicle treated group • II) Test compound treated group
(§2) The mice were treated with vehicle and test compounds intraperitoneally for 7-15 days. On the day 8, Oxygen consumption was measured for individual mouse 30 min after the drug treatment and % change with respect to vehicle is calculated.

[2] = tested on: C57BL6 mice fed High Fat Diet; assay: Food consumption in High Fat Diet fed mice; format: in vivo; details: Dose 11 μM/kg intraperitoneally, 7-15 days
Experimental: as §1, §2
(§3) During the experiment food consumption was monitored daily. At the end of the experiment the animals were scarified and the heart weights were recorded.

[3] = tested on: C57BL6 mice fed High Fat Diet; assay: Heart weight in High Fat Diet fed mice; format: in vivo; details: Dose 11 μM/kg intraperitoneally, end of experiment
Experimental: as §1, §2, §3

[4] = target: T1, THR α1 (Homo sapiens, UniProt P10827); assay: Thyroid α1 transactivation (TRE reporter, luciferase) in COS7 cells; format: cell-based; details: Conc. 20 uM, 24 hours, vs vehicle control
T1 construct: GAL4 (plasmid pGAL4); expressed in transfected cells; host or cells: COS7
T1 sequence (P10827 1-410 isoform P10827-2): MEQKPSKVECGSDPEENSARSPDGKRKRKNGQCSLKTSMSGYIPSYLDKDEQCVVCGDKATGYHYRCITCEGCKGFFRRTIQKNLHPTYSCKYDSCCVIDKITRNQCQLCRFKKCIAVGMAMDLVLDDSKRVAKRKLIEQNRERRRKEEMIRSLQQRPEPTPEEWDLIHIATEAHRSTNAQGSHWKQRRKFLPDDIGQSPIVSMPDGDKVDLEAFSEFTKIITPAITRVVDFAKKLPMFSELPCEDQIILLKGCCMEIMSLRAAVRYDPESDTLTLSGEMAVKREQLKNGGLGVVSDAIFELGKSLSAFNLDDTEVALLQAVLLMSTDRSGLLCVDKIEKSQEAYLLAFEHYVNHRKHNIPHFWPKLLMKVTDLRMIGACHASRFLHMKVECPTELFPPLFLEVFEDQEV
Experimental: (§4) Compounds of the present invention were tested for their effect on O2 consumption (metabolic effect), LDL cholesterol, glucose levels, insulin levels and food consumption (appetite stimulant) and also to assess transcriptional activity of thyroid hormone receptor by in vitro TRE (Thyroid receptor element) reporter assay for TRα1 and TRβ1.
(§5) COS7 cells were transiently transfected with pGAL4 […]/Thyroid α1 or pGAL4/Thyroid β1 and pLuc Pur. The cells were cotransfected with pLacZNorm for normalization of transfection efficiency. Transfected cells were then treated with different concentrations of compounds of present invention, vehicle for 24 hours.
(§6) Cells were the lysed and luciferase activity was monitored in all samples. Results were expressed as fold activation as compared to vehicle control.
(§7) Results: Thyroid(α1/β1) transactivation in COS7 cells.

[5] = target: T2, THR β1 (Homo sapiens, UniProt P10828); assay: Thyroid β1 transactivation (TRE reporter, luciferase) in COS7 cells; format: cell-based; details: Conc. 20 uM, 24 hours, vs vehicle control
T2 construct: GAL4 (plasmid pGAL4); expressed in transfected cells; host or cells: COS7
T2 sequence (P10828 1-461): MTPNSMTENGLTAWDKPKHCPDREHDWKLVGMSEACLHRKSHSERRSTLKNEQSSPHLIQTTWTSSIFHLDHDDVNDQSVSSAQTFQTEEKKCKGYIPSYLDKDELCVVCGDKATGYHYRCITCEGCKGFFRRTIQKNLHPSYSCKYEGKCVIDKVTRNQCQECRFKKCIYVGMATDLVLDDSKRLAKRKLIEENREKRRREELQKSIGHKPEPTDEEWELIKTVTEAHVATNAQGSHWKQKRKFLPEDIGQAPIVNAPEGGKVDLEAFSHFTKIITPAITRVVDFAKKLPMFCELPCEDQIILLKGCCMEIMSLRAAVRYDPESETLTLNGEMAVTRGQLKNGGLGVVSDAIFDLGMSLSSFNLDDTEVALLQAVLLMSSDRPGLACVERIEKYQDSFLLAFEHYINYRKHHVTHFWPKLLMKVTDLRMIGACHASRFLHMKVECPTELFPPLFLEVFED
Experimental: as §4, §5, §6, §7

Molecule | increase in O2 cons [1] | increase in food consumption with reference to vehicle [2] | increase in Heart weight with reference to vehicle [3] | α1 Fold Activation [4] [Fold] | β1 Fold Activation [5] [Fold] | change in vivo at 11 µM, 11 µmol/kg [1] [%]
3-[4-(7-Hydroxy-indan-4-yloxy)-3-thiophen-2-yl-pyrazol-1-yl]-propionic acid And 3-[4-(7-Hydroxy-indan-4-yloxy)-5-thiophen-2-yl-pyrazol-1-yl]-propionic acid [Compound 7] | ** (** = Increase > 5%) | No change | No change |  |  | 
7-[1-(1H-Tetrazol-5-ylmethyl)-3-thiophen-2-yl-1H-pyrazol-4-yloxy]-indan-4-ol And 7-[1-(1H-Tetrazol-5-ylmethyl)-5-thiophen-2-yl-1H-pyrazol-4-yloxy]-indan-4-ol [Compound 8] | ** (** = Increase > 5%) | No change | No change | 3 | 1 | 
Cc1nn(CCC(=O)O)c(C)c1Oc1ccc(O)c2c1CCC2 [Compound 1, 3-[4-(7-Hydroxy-indan-4-yloxy)-3,5-dimethyl-pyrazol-1-yl]-propionic acid] |  | No change | No change | 1 | 1 | < 5
Cc1nn(CCC(=O)O)c(C)c1Cc1ccc2[nH]ccc2c1 [Compound 2, 3-[4-(1H-Indol-5-ylmethyl)-3,5-dimethyl-pyrazol-1-yl]-propionic acid] |  | No change | No change | 1 | 1 | < 5
Cc1nn(Cc2nnn[nH]2)c(C)c1Oc1ccc(O)c2c1CCC2 [Compound 3, 7-[3,5-Dimethyl-1-(1H-tetrazol-5-ylmethyl)-1H-pyrazol-4-yloxy]-indan-4-ol] |  | No change | No change | 1 | 1 | > 5
Cc1nn(CC(=O)Nc2nnn[nH]2)c(C)c1Oc1ccc(O)c2c1CCC2 [Compound 6, 2-[4-(7-Hydroxy-indan-4-yloxy)-3,5-dimethyl-pyrazol-1-yl]-N-(1H-tetrazol-5-yl)-acetamide] |  | No change | No change |  |  | < 5
Cc1cc(Cc2c(C)nn(CCC(=O)O)c2C)c2c(c1O)CCC2 [Compound 9, 3-[4-(7-Hydroxy-6-methyl-indan-4-ylmethyl)-3,5-dimethyl-pyrazol-1-yl]-propionic acid] |  | No change | No change | 2.5 | 2 | > 5
COc1c(C)cc(Cc2c(C)nn(CCC(=O)O)c2C)c2c1CCC2 [Compound 14, 3-[4-(7-Methoxy-6-methyl-indan-4-ylmethyl)-3,5-dimethyl-pyrazol-1-yl]-propionic acid] |  | No change | No change |  |  | < 5
CCc1nn(CC(=O)O)c(CC)c1Cc1cc(C)c(O)c2c1CCC2 [Compound 19, [3,5-Diethyl-4-(7-hydroxy-6-methyl-indan-4-ylmethyl)-pyrazol-1-yl]-acetic acid] |  | No change | No change |  |  | > 5
CCc1nn(CCC(=O)O)c(CC)c1Cc1cc(C)c(O)c2c1CCC2 [Compound 20, 3-[3,5-Diethyl-4-(7-hydroxy-6-methyl-indan-4-ylmethyl)-pyrazol-1-yl]-propionic acid] |  | No change | No change |  |  | > 5

Source: patent US8143424B2, “Thyroid like compounds” (Torrent Pharmaceuticals Ltd., priority 2007, dated 2012)
